Test results from ChEMBL document CHEMBL1201862, “PubChem BioAssay data set” (2004).
Structures can show the parent of a compound that is named as a salt.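 Five concentrations, 48 hours, 96-well plates. The concentration for 50% growth inhibition is given as GI50.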 The source made the active and inactive calls. Cut-off read from the data, not from the text of the source: active = GI50 up to about 1.1 µM and inactive = higher.

Columns and labels:
Assay in all cases: NCI anticancer screen, dose series, 48 h
[1] = system: K562
[2] = system: ACHN
[3] = system: NCI-H226
[4] = system: RPMI-8226
[5] = system: SNB-19
[6] = system: COLO 205
[7] = system: MDA-MB-435
[8] = system: UACC-62
[9] = system: KM12
[10] = system: HT-29
[11] = system: DU-145
[12] = system: NCI/ADR-RES
[13] = system: MOLT-4
[14] = system: CAKI-1
[15] = system: MDA-N
[16] = system: HL-60
[17] = system: UACC-257
[18] = system: IGROV-1
[19] = system: NCI-H23
[20] = system: SK-MEL-2

SMILES | GI50 [1] | GI50 [2] | GI50 [3] | GI50 [4] | GI50 [5] | GI50 [6] | GI50 [7] | GI50 [8] | GI50 [9] | GI50 [10] | GI50 [11] | GI50 [12] | GI50 [13] | GI50 [14] | GI50 [15] | GI50 [16] | GI50 [17] | GI50 [18] | GI50 [19] | GI50 [20]
CO/N=C(\C)c1cccc(Nc2nc3ccccc3c3occc23)c1 | 16.4 µM (inactive) | 14 µM (inactive) | 1.56 µM (inactive) | 12.9 µM (inactive) | 15.7 µM (inactive) | 12.1 µM (inactive) | 12.2 µM (inactive) | < 0.01 µM (active) | 7.59 µM (inactive) | 5.19 µM (inactive) | 15.8 µM (inactive) | 14.4 µM (inactive) | 11.2 µM (inactive) | 10.8 µM (inactive) | 14.1 µM (inactive) | 27.7 µM (inactive) | 0.0419 µM (active) | – | – | –
Cc1ccc(/N=N/c2c(O)c(C(=O)O)cc3ccccc23)c(S(=O)(=O)O)c1 | > 100 µM (inactive) | > 100 µM (inactive) | > 100 µM (inactive) | > 100 µM (inactive) | > 100 µM (inactive) | > 100 µM (inactive) | > 100 µM (inactive) | > 100 µM (inactive) | > 100 µM (inactive) | > 100 µM (inactive) | > 100 µM (inactive) | > 100 µM (inactive) | > 100 µM (inactive) | > 100 µM (inactive) | > 100 µM (inactive) | – | > 100 µM (inactive) | > 100 µM (inactive) | > 100 µM (inactive) | > 100 µM (inactive)
CN1CCN(c2cc3c(cc2F)c(=O)c(C(=O)O)cn3C2CC2)CC1CC#N (configuration not stated) | > 100 µM (inactive) | > 100 µM (inactive) | > 100 µM (inactive) | > 100 µM (inactive) | > 100 µM (inactive) | > 100 µM (inactive) | > 100 µM (inactive) | > 100 µM (inactive) | > 100 µM (inactive) | > 100 µM (inactive) | > 100 µM (inactive) | > 100 µM (inactive) | > 100 µM (inactive) | > 100 µM (inactive) | > 100 µM (inactive) | > 100 µM (inactive) | > 100 µM (inactive) | > 100 µM (inactive) | > 100 µM (inactive) | –
CN(C)CCOC(=O)COc1ccc(Cl)cc1 [CENTROPHENOXINE HYDROCHLORIDE] | > 100 µM (inactive) | > 100 µM (inactive) | > 100 µM (inactive) | – | > 100 µM (inactive) | > 100 µM (inactive) | > 100 µM (inactive) | > 100 µM (inactive) | > 100 µM (inactive) | > 100 µM (inactive) | > 100 µM (inactive) | > 100 µM (inactive) | > 100 µM (inactive) | > 100 µM (inactive) | > 100 µM (inactive) | – | > 100 µM (inactive) | > 100 µM (inactive) | > 100 µM (inactive) | > 100 µM (inactive)
Cc1cc2c(c(C(=O)NCCC(=O)O)c1)Oc1c(cc(C)cc1C(=O)NCCC(=O)O)S2 | > 100 µM (inactive) | > 100 µM (inactive) | > 100 µM (inactive) | > 100 µM (inactive) | > 100 µM (inactive) | > 100 µM (inactive) | > 100 µM (inactive) | > 100 µM (inactive) | > 100 µM (inactive) | > 100 µM (inactive) | > 100 µM (inactive) | > 100 µM (inactive) | > 100 µM (inactive) | > 100 µM (inactive) | > 100 µM (inactive) | – | > 100 µM (inactive) | > 100 µM (inactive) | > 100 µM (inactive) | > 100 µM (inactive)
Cc1cc(Cl)ccc1NC(=O)/C(CC(=O)CC(c1ccccc1)c1c(O)c2ccccc2oc1=O)=N\O (configuration not stated) | – | > 100 µM (inactive) | > 100 µM (inactive) | – | > 100 µM (inactive) | > 100 µM (inactive) | > 100 µM (inactive) | > 100 µM (inactive) | > 100 µM (inactive) | > 100 µM (inactive) | > 100 µM (inactive) | > 100 µM (inactive) | > 100 µM (inactive) | > 100 µM (inactive) | > 100 µM (inactive) | > 100 µM (inactive) | > 100 µM (inactive) | > 100 µM (inactive) | > 100 µM (inactive) | > 100 µM (inactive)
CCN(CC)C(=O)c1cc([N+](=O)[O-])c(=O)n2c1[nH]c1ccccc12 | > 100 µM (inactive) | > 100 µM (inactive) | > 100 µM (inactive) | > 100 µM (inactive) | > 100 µM (inactive) | > 100 µM (inactive) | > 100 µM (inactive) | > 100 µM (inactive) | > 100 µM (inactive) | > 100 µM (inactive) | > 100 µM (inactive) | > 100 µM (inactive) | > 100 µM (inactive) | > 100 µM (inactive) | > 100 µM (inactive) | > 100 µM (inactive) | > 100 µM (inactive) | > 100 µM (inactive) | > 100 µM (inactive) | –
N=c1c2c3n(c4c(=O)n(-c5ccccc5)c(=S)n(c(=O)n1-c1ccccc1)c24)CCCCC3 | – | > 100 µM (inactive) | > 100 µM (inactive) | – | > 100 µM (inactive) | > 100 µM (inactive) | > 100 µM (inactive) | > 100 µM (inactive) | > 100 µM (inactive) | > 100 µM (inactive) | > 100 µM (inactive) | > 100 µM (inactive) | – | > 100 µM (inactive) | > 100 µM (inactive) | > 100 µM (inactive) | > 100 µM (inactive) | > 100 µM (inactive) | > 100 µM (inactive) | > 100 µM (inactive)
O=C(Nc1nc(C23CC4CC(CC(C4)C2)C3)cs1)c1cc2cc([N+](=O)[O-])ccc2oc1=O | > 100 µM (inactive) | 47.3 µM (inactive) | > 100 µM (inactive) | > 100 µM (inactive) | 72.1 µM (inactive) | 41 µM (inactive) | 73.8 µM (inactive) | – | > 100 µM (inactive) | 58.1 µM (inactive) | 86.7 µM (inactive) | 35.7 µM (inactive) | 57.8 µM (inactive) | > 100 µM (inactive) | > 100 µM (inactive) | > 100 µM (inactive) | > 100 µM (inactive) | 45.3 µM (inactive) | 77.1 µM (inactive) | –
O=C1c2ccccc2C(=O)N1CC1S(=O)(=O)OCCOS1(=O)=O | > 100 µM (inactive) | > 100 µM (inactive) | > 100 µM (inactive) | > 100 µM (inactive) | > 100 µM (inactive) | > 100 µM (inactive) | > 100 µM (inactive) | > 100 µM (inactive) | – | > 100 µM (inactive) | > 100 µM (inactive) | > 100 µM (inactive) | > 100 µM (inactive) | > 100 µM (inactive) | > 100 µM (inactive) | > 100 µM (inactive) | > 100 µM (inactive) | > 100 µM (inactive) | > 100 µM (inactive) | –
CCCC(C)c1c(Cl)nc(Cl)nc1Cl (configuration not stated) | 3.37 µM (inactive) | 4.21 µM (inactive) | 4.34 µM (inactive) | 5.53 µM (inactive) | 18.2 µM (inactive) | 4.4 µM (inactive) | 3.75 µM (inactive) | > 10 µM (inactive) | 2.47 µM (inactive) | 11.4 µM (inactive) | 15 µM (inactive) | 33.4 µM (inactive) | 1.49 µM (inactive) | – | 4.72 µM (inactive) | 2.1 µM (inactive) | 11 µM (inactive) | 14.7 µM (inactive) | 3.18 µM (inactive) | 23.9 µM (inactive)
Oc1cc(-c2cccc(Br)c2)nc2cc3c(cc12)OCO3 | 3.74 µM (inactive) | 5.32 µM (inactive) | 6.75 µM (inactive) | 15 µM (inactive) | 3.37 µM (inactive) | 32 µM (inactive) | 0.883 µM (active) | 1.75 µM (inactive) | 3 µM (inactive) | 30.9 µM (inactive) | 5.43 µM (inactive) | 4.56 µM (inactive) | 72.3 µM (inactive) | – | 0.31 µM (active) | 3.57 µM (inactive) | 5.24 µM (inactive) | 1.8 µM (inactive) | 5.38 µM (inactive) | 2.16 µM (inactive)
COc1cccc2nc3ccccc3nc12 | 80.2 µM (inactive) | 25.3 µM (inactive) | 45.5 µM (inactive) | 17 µM (inactive) | 94.6 µM (inactive) | 90.2 µM (inactive) | > 100 µM (inactive) | 50.9 µM (inactive) | 74.1 µM (inactive) | 46.3 µM (inactive) | > 100 µM (inactive) | > 100 µM (inactive) | 60.8 µM (inactive) | 61 µM (inactive) | > 100 µM (inactive) | > 100 µM (inactive) | 91.2 µM (inactive) | – | > 100 µM (inactive) | –
CCOC(=O)[C@@H]1ON2O[C@@H](OC3CCCCC3c3ccccc3)C[C@H]3OC(=O)[C@@H]1C32 (some centres not stated) | > 100 µM (inactive) | > 100 µM (inactive) | 93.8 µM (inactive) | > 100 µM (inactive) | – | > 100 µM (inactive) | 91.2 µM (inactive) | > 100 µM (inactive) | > 100 µM (inactive) | > 100 µM (inactive) | > 100 µM (inactive) | > 100 µM (inactive) | > 100 µM (inactive) | 51.9 µM (inactive) | > 100 µM (inactive) | – | > 100 µM (inactive) | > 100 µM (inactive) | 53.6 µM (inactive) | –
COc1ccc(C2N(c3ccc(F)cc3)C(=O)N3C(c4ccc(OC)cc4)N(c4ccc(F)cc4)C(=O)N23)cc1 (configuration not stated) | – | > 100 µM (inactive) | – | > 100 µM (inactive) | > 100 µM (inactive) | > 100 µM (inactive) | > 100 µM (inactive) | > 100 µM (inactive) | > 100 µM (inactive) | > 100 µM (inactive) | > 100 µM (inactive) | > 100 µM (inactive) | – | > 100 µM (inactive) | > 100 µM (inactive) | > 100 µM (inactive) | > 100 µM (inactive) | > 100 µM (inactive) | > 100 µM (inactive) | > 100 µM (inactive)
